PubChem BioAssay AID1259411 (Chemical Carcinogenesis Research Information System (CCRIS), 2018)
The source made the active and inactive calls. How the calls were made is not given here.

Test system: rodent carcinogenicity bioassays, tumor incidence
Test: CCRIS carcinogenicity studies
How it was run: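 Archive of carcinogenicity, mutagenicity, tumor promotion and tumor inhibition results drawn from journals, NCI reports and other sources, expert-reviewed; covers 1985-2011 and is no longer updated.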

For `O=c1c(O[C@@H]2O[C@H]([C@H](O)CO)[C@H](O)[C@H]2O)c(-c2ccc(O)c(O)c2)oc2cc(O)cc(O)c12`, the carcinogen call (Species: RAT, Strain/Sex: F344 DUCRJ/FEMALE (50/GROUP), Route: ORAL, DIET, Dose: 119.2, 352.8 MG/KG DAILY FOR 104 WK (STUDY DURATION: 104 WK), TEST MATERIAL WAS ENZYMATICALLY MODIFIED, Dose: 119.2, 352.8 MG/KG DAILY FOR 104 WK (STUDY DURATION: 104 WK), TEST MATERIAL WAS ENZYMATICALLY MODIFIED, Tumor Site: Type of Lesion: NONE) was “inactive; negative” and the carcinogen call (Species: RAT, Strain/Sex: F344 DUCRJ/MALE (50/GROUP), Route: ORAL, DIET, Dose: 142.5, 431.1 MG/KG DAILY FOR 104 WK (STUDY DURATION: 104 WK), TEST MATERIAL WAS ENZYMATICALLY MODIFIED, Dose: 142.5, 431.1 MG/KG DAILY FOR 104 WK (STUDY DURATION: 104 WK), TEST MATERIAL WAS ENZYMATICALLY MODIFIED, Tumor Site: Type of Lesion: NONE) was “inactive; negative”.

For `O=P1(O)OP(=O)(O)OP(=O)(O)O1`, the carcinogen call (Species: RAT, Strain/Sex: F344/FEMALE, Route: ORAL, Dose: 0, 1.5, 3% IN DIET FOR DURATION OF STUDY (STUDY DURATION: 108 WK), Dose: 0, 1.5, 3% IN DIET FOR DURATION OF STUDY (STUDY DURATION: 108 WK)) was “inactive; negative” and the carcinogen call (Species: RAT, Strain/Sex: F344/MALE, Route: ORAL, Dose: 0, 1.5, 3% IN DIET FOR DURATION OF STUDY (STUDY DURATION: 108 WK), Dose: 0, 1.5, 3% IN DIET FOR DURATION OF STUDY (STUDY DURATION: 108 WK)) was “inactive; negative”.

In the case of `CC(C)(C)Br`, the carcinogen call (Species: MOUSE, Route: INTRAPERITONEAL, Tumor Site: Type of Lesion: LUNG) is reported as “active; positive”.

In the case of `Nc1ccc(Cl)c(N)c1`, the carcinogen call (Species: MOUSE, Strain/Sex: B6C3F1/FEMALE, Route: ORAL, Dose: 0, 0.7, 1.4% OF DIET, TWA, Dose: 0, 0.7, 1.4% OF DIET, TWA, Tumor Site: Type of Lesion: LIVER: HEPATOCELLULAR ADENOMA OR HEPATOCELLULAR CARCINOMA) is reported as “active; positive”, the carcinogen call (Species: MOUSE, Strain/Sex: B6C3F1/MALE, Route: ORAL, Dose: 0, 0.7, 1.4% OF DIET, TWA, Dose: 0, 0.7, 1.4% OF DIET, TWA) is reported as “inactive; negative” and the carcinogen call (Species: RAT, Strain/Sex: F344/FEMALE, Route: ORAL, Dose: 0, 0.2, 0.4% OF DIET, Dose: 0, 0.2, 0.4% OF DIET) is reported as “inactive; negative”. The carcinogen call (Species: RAT, Strain/Sex: F344/MALE, Route: ORAL, Dose: 0, 0.2, 0.4% OF DIET, Dose: 0, 0.2, 0.4% OF DIET, Tumor Site: Type of Lesion: ADRENAL GLAND: PHEOCHROMOCYTOMA) was “active; positive”.

`Nc1ccc(O)c([N+](=O)[O-])c1` was tested, and the carcinogen call (Species: MOUSE, Strain/Sex: B6C3F1/FEMALE, Route: ORAL, Dose: 0, 1250, 2500 PPM IN DIET FOR 103 WK (STUDY DURATION: 105 WK), Dose: 0, 1250, 2500 PPM IN DIET FOR 103 WK (STUDY DURATION: 105 WK)) was “inactive; negative”, the carcinogen call (Species: MOUSE, Strain/Sex: B6C3F1/MALE, Route: ORAL, Dose: 0, 1250, 2500 PPM IN DIET FOR 103 WK (STUDY DURATION: 105 WK), Dose: 0, 1250, 2500 PPM IN DIET FOR 103 WK (STUDY DURATION: 105 WK)) was “inactive; negative” and the carcinogen call (Species: RAT, Strain/Sex: F344/FEMALE, Route: ORAL, Dose: 0, 1250, 2500 PPM IN DIET FOR 103 WK (STUDY DURATION: 105 WK), Dose: 0, 1250, 2500 PPM IN DIET FOR 103 WK (STUDY DURATION: 105 WK), Tumor Site: Type of Lesion: BLADDER: CARCINOMA) was “equivocal”. For the same compound, the carcinogen call (Species: RAT, Strain/Sex: F344/MALE, Route: ORAL, Dose: 0, 1250, 2500 PPM IN DIET FOR 103 WK (STUDY DURATION: 105 WK), Dose: 0, 1250, 2500 PPM IN DIET FOR 103 WK (STUDY DURATION: 105 WK), Tumor Site: Type of Lesion: URINARY BLADDER: TRANSITIONAL CELL CARCINOMA) was “active; positive”.

With `Nc1ccc([N+](=O)[O-])cc1N` the carcinogen call (Species: MOUSE, Strain/Sex: B6C3F1/FEMALE, Route: ORAL, Dose: 0, 3750, 7500 PPM IN DIET, Dose: 0, 3750, 7500 PPM IN DIET) was “inactive; negative”, the carcinogen call (Species: MOUSE, Strain/Sex: B6C3F1/MALE, Route: ORAL, Dose: 0, 3750, 7500 PPM IN DIET, Dose: 0, 3750, 7500 PPM IN DIET) was “inactive; negative” and the carcinogen call (Species: RAT, Strain/Sex: F344/FEMALE, Route: ORAL, Dose: 0, 375, 750 PPM IN DIET, Dose: 0, 375, 750 PPM IN DIET) was “inactive; negative”. The carcinogen call (Species: RAT, Strain/Sex: F344/MALE, Route: ORAL, Dose: 0, 375, 750 PPM IN DIET, Dose: 0, 375, 750 PPM IN DIET) was “inactive; negative”.

`CC1=C[C@H]2O[C@@H]3[C@H](O)[C@@H](O)[C@](C)([C@@]2(CO)[C@H](O)C1=O)[C@]31CO1` was tested, and the carcinogen call (Species: MOUSE, Strain/Sex: C57BL/6CRSLC/FEMALE, Route: ORAL, Dose: 0, 6, 12, 30 PPM IN DIET FOR 104 WK (STUDY DURATION: 104 WK), Dose: 0, 6, 12, 30 PPM IN DIET FOR 104 WK (STUDY DURATION: 104 WK)) was “inactive; negative”.

For `Oc1cc2c(c3ccc4ccccc4c13)CCC2`, the carcinogen call (Species: MOUSE, Strain/Sex: TO/MALE, FEMALE, Route: DERMAL, Dose: 0, 50 UG (10 µL OF A 0.5% W/V TOLUENE SOLUTION) 2/WK FOR 70 WK (STUDY DURATION: 70 WK), Tumor Site: Type of Lesion: SKIN: PAPILLOMA OR CARCINOMA) was “active; positive”.

With `CCN(CC(F)(F)F)N=O` the carcinogen call (Species: RAT, Strain/Sex: SPRAGUE-DAWLEY/MALE, Route: GAVAGE, Dose: 7.5, 15, 30, 60 MG/KG IN VEGETABLE OIL 2/WK, Dose: 7.5, 15, 30, 60 MG/KG IN VEGETABLE OIL 2/WK, Tumor Site: Type of Lesion: ESOPHAGUS: CARCINOMA, NASAL CAVITY: SQUAMOUS CELL CARCINOMA) was “active; positive”.

In the case of `O.O=S(=O)([O-])[O-].[Mn+2]`, the carcinogen call (Species: MOUSE, Strain/Sex: B6C3F1/FEMALE, Route: ORAL, Dose: 0, 1500, 5000, 15000 PPM IN DIET (0; 60; 200; 615 MG/KG/D) FOR 105 WK (STUDY DURATION: 105 WK), Dose: 0, 1500, 5000, 15000 PPM IN DIET (0; 60; 200; 615 MG/KG/D) FOR 105 WK (STUDY DURATION: 105 WK), Tumor Site: Type of Lesion: THYROID GLAND (FOLLICULAR CELL): ADENOMA) is reported as “equivocal”, the carcinogen call (Species: MOUSE, Strain/Sex: B6C3F1/MALE, Route: ORAL, Dose: 0, 1500, 5000, 15000 PPM IN DIET (0; 60; 200; 615 MG/KG/D) FOR 105 WK (STUDY DURATION: 105 WK), Dose: 0, 1500, 5000, 15000 PPM IN DIET (0; 60; 200; 615 MG/KG/D) FOR 105 WK (STUDY DURATION: 105 WK), Tumor Site: Type of Lesion: THYROID GLAND (FOLLICULAR CELL): ADENOMA) is reported as “equivocal” and the carcinogen call (Species: RAT, Strain/Sex: F344/FEMALE, Route: ORAL, Dose: 0, 1500, 5000, 15000 PPM IN DIET (0; 70; 230; 715 MG/KG/D) FOR 2 YR (STUDY DURATION: 2 YR), Dose: 0, 1500, 5000, 15000 PPM IN DIET (0; 70; 230; 715 MG/KG/D) FOR 2 YR (STUDY DURATION: 2 YR)) is reported as “inactive; negative”. For the same compound, the carcinogen call (Species: RAT, Strain/Sex: F344/MALE, Route: ORAL, Dose: 0, 1500, 5000, 15000 PPM IN DIET (0; 60; 200; 615 MG/KG/D) FOR 2 YR (STUDY DURATION: 2 YR), Dose: 0, 1500, 5000, 15000 PPM IN DIET (0; 60; 200; 615 MG/KG/D) FOR 2 YR (STUDY DURATION: 2 YR)) was “inactive; negative”.
